The numbers were not newly measured in patent publication US10570425B2, “Engineered cyanobacterium and its application for producing acetate” (National Tsing Hua University, priority 2017, dated 2020), which cites them from elsewhere.

A word on the Km: it is the concentration of substrate that gives half-maximal velocity.

The target in data set [1] is 3-hydroxypropionaldehyde dehydrogenase (AldH) (Escherichia coli, UniProt P23883). As to conditions: substrate of AldH.
Data set [2] deals with acetaldehyde dehydrogenase B (AldB) (Escherichia coli, UniProt P37685). The note with it: substrate of aldB.
The subject of data set [3] is phenylacetaldehyde dehydrogenase (PadA). As to conditions: substrate of padA, Table 4.
A further data set has as its system padA. As to conditions: substrate of padA as titled, Table 5.
Data set [4] deals with phosphate acetyltransferases (Pta and EutD). As to conditions: Acetyl-CoA forming reaction; for kcat/KmAc-P: substrate Ac-P; for kcat/KmCoA: substrate CoA.

Chain of acetaldehyde dehydrogenase B (AldB) (P37685 whole entry): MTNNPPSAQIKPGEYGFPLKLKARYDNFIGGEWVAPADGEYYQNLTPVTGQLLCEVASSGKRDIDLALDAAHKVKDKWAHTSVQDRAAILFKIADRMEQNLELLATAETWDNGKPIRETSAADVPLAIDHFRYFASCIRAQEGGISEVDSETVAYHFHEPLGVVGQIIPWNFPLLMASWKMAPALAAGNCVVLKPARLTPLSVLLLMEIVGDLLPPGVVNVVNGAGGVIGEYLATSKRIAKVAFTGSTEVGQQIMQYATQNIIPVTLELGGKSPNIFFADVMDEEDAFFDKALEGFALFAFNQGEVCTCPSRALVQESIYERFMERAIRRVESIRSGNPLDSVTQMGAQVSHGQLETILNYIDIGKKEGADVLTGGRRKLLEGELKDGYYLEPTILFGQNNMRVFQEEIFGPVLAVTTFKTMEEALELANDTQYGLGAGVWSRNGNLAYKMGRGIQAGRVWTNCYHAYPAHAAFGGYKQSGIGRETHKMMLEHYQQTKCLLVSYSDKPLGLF
Chain of 3-hydroxypropionaldehyde dehydrogenase (AldH) (P23883 whole entry): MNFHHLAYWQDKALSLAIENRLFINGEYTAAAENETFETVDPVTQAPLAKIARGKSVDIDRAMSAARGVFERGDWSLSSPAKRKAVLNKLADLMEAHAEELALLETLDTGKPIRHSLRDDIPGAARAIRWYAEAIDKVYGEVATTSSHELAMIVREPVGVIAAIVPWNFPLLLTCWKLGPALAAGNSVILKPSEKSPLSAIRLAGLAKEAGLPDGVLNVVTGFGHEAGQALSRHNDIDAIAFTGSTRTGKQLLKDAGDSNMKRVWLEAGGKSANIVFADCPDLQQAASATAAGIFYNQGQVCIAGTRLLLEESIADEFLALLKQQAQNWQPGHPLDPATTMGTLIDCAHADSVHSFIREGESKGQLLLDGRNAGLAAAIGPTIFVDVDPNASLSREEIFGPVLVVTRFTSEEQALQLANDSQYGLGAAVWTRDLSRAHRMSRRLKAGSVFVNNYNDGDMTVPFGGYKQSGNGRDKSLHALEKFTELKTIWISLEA

`O=CCCO` [3-Hydroxypropionaldehyde]: the Km in data set [1] is 490 µM.

On to `CC=O` [Acetaldehyde], for which the Km is 1000 µM in data set [1], 2.5 µM in data set [2], 2150 µM in data set [3] and 15200 µM in the data set on padA.

As for `O=Cc1ccccc1` [Benzaldehyde], the Km in data set [3] was 8 µM; in the data set with padA, 150 µM.

As to `O=CCCl` [Chloroacetaldehyde], the Km in data set [2] was 3.6 µM.

In the case of `CCC=O` [Propionaldehyde], the Km in data set [1] is 1210 µM; in data set [2], 5.8 µM; in data set [3], 11.6 µM; in the data set with padA it was 240 µM.

Take “Ec-eutD: phosphate acetyltransferase EutD from Escherichia coli”: in data set [4], the kcat/KmAc-P is on record as 1.3 sec^−1μM^−1 and the kcat/KmCoA is listed as 12.6 sec^−1μM^−1.

B1: Ec-pta: phosphate acetyltransferase Pta from Escherichia coli (protein, UniProt P0A9M8 2-714, looked up)
Phosphate acetyltransferase: SRIIMLIPTGTSVGLTSVSLGVIRAMERKGVRLSVFKPIAQPRTGGDAPDQTTTIVRANSSTTTAAEPLKMSYVEGLLSSNQKDVLMEEIVANYHANTKDAEVVLVEGLVPTRKHQFAQSLNYEIAKTLNAEIVFVMSQGTDTPEQLKERIELTRNSFGGAKNTNITGVIVNKLNAPVDEQGRTRPDLSEIFDDSSKAKVNNVDPAKLQESSPLPVLGAVPWSFDLIATRAIDMARHLNATIINEGDINTRRVKSVTFCARSIPHMLEHFRAGSLLVTSADRPDVLVAACLAAMNGVEIGALLLTGGYEMDARISKLCERAFATGLPVFMVNTNTWQTSLSLQSFNLEVPVDDHERIEKVQEYVANYINADWIESLTATSERSRRLSPPAFRYQLTELARKAGKRIVLPEGDEPRTVKAAAICAERGIATCVLLGNPAEINRVAASQGVELGAGIEIVDPEVVRESYVGRLVELRKNKGMTETVAREQLEDNVVLGTLMLEQDEVDGLVSGAVHTTANTIRPPLQLIKTAPGSSLVSSVFFMLLPEQVYVYGDCAINPDPTAEQLAEIAIQSADSAAAFGIEPRVAMLSYSTGTSGAGSDVEKVREATRLAQEKRPDLMIDGPLQYDAAVMADVAKSKAPNSPVAGRATVFIFPDLNTGNTTYKAVQRSADLISIGPMLQGMRKPVNDLSRGALVDDIVYTIALTAIQSAQQQ
With B1, in data set [4], the kcat/KmAc-P is recorded as 0.25 sec^−1μM^−1 and the kcat/KmCoA is on record as 3.4 sec^−1μM^−1.
